Experimental data reported in patent US11083725B2 (priority 2014, dated 2021).

Tested on: NHBE cells
Assay: Biolog metabolic array: substrate use by NHBE cells with or without CA09 infection
Type: cell-based, human
Details: for Substrate use, 590 nm absorbance normalized to zero hour, 1 hr: Biolog PMM2, 1 hr; for Substrate use, 590 nm absorbance normalized to zero hour, 5 hr: Biolog PMM2, 5 hr; for Substrate use, 590 nm absorbance normalized to zero hour, 7 hr: Biolog PMM2, 7 hr
[1] = Control (uninfected) NHBE cells
[2] = Virus (CA09, MOI 1) infected NHBE cells
[3] = Virus (CA09-infected, MOI 1) NHBE cells
[4] = Virus: CA09-infected NHBE cells, MOI 1, Biolog PMM2

SMILES | 590 nm absorbance normalized to zero hour (substrate use), 1 hr [1] | 590 nm absorbance normalized to zero hour (substrate use), 2 hr [1] | 590 nm absorbance normalized to zero hour (substrate use), 3 hr [1] | 590 nm absorbance normalized to zero hour (substrate use), 4 hr [1] | 590 nm absorbance normalized to zero hour (substrate use), 6 hr [1] | 590 nm absorbance normalized to zero hour (substrate use), 8 hr [1] | 590 nm absorbance normalized to zero hour (substrate use), 9 hr [1] | 590 nm absorbance normalized to zero hour (substrate use), 10 hr [1] | 590 nm absorbance normalized to zero hour (substrate use), 11 hr [1] | Substrate use, 590 nm absorbance normalized to zero hour, 1 hr [1] | Substrate use, 590 nm absorbance normalized to zero hour, 5 hr [1] | Substrate use, 590 nm absorbance normalized to zero hour, 7 hr [1] | 590 nm absorbance normalized to zero hour (substrate use), 1 hr [3] | 590 nm absorbance normalized to zero hour (substrate use), 2 hr [3] | 590 nm absorbance normalized to zero hour (substrate use), 3 hr [3] | 590 nm absorbance normalized to zero hour (substrate use), 4 hr [3] | 590 nm absorbance normalized to zero hour (substrate use), 6 hr [3] | 590 nm absorbance normalized to zero hour (substrate use), 8 hr [3] | 590 nm absorbance normalized to zero hour (substrate use), 9 hr [3] | 590 nm absorbance normalized to zero hour (substrate use), 10 hr [3] | also measured
OC[C@@H](O)[C@@H](O[C@@H]1O[C@H](CO)[C@H](O)[C@H](O)[C@H]1O)[C@H](O)[C@@H](O)CO [Lactitol] | 0.19 | 0.26 | 0.31 | 0.33 | 0.40 | 0.47 | 0.50 | 0.55 | 0.62 | 0.19 | 0.39 | 0.44 | 1.61 | 2.20 | 2.54 | 2.73 | 3.38 | 3.76 | 4.11 | 4.31 | Substrate use, 590 nm absorbance normalized to zero hour, 1 hr [2]: 1.61; Substrate use, 590 nm absorbance normalized to zero hour, 5 hr [2]: 3.16; Substrate use, 590 nm absorbance normalized to zero hour, 7 hr [2]: 3.55; 590 nm absorbance normalized to zero hour (substrate use), 11 hr [3]: 4.66
CO[C@H]1O[C@H](CO)[C@H](O)[C@H](O)[C@H]1O [a-Methyl-D-Galactoside] | 1.13 | 0.68 | 0.80 | 0.84 | 1.20 | 1.15 | 1.29 | 1.42 | 1.06 | 1.13 | 1.01 | 1.15 | 2.91 | 1.88 | 1.16 | 1.24 | 1.51 | 1.67 | 1.83 | 1.89 | 590 nm absorbance normalized to zero hour (substrate use), 0 hr [1]: 1.00; Substrate use, 590 nm absorbance normalized to zero hour, 0 hr (Control (uninfected) NHBE cells, Biolog PMM2, 0 hr): 1.00; 590 nm absorbance normalized to zero hour (substrate use), 0 hr [3]: 1.00; 590 nm absorbance normalized to zero hour (substrate use), 5 hr [3]: 1.43; 590 nm absorbance normalized to zero hour (substrate use), 7 hr [3]: 1.59; 590 nm absorbance normalized to zero hour (substrate use), 11 hr [3]: 2.05; 590 nm absorbance normalized to zero hour (substrate use), 0 hr [4]: 1.00; 590 nm absorbance normalized to zero hour (substrate use), 1 hr [4]: 2.91; 590 nm absorbance normalized to zero hour (substrate use), 2 hr [4]: 1.88; 590 nm absorbance normalized to zero hour (substrate use), 3 hr [4]: 1.16; 590 nm absorbance normalized to zero hour (substrate use), 4 hr [4]: 1.24; 590 nm absorbance normalized to zero hour (substrate use), 5 hr [4]: 1.43; 590 nm absorbance normalized to zero hour (substrate use), 6 hr [4]: 1.51; 590 nm absorbance normalized to zero hour (substrate use), 7 hr [4]: 1.59; 590 nm absorbance normalized to zero hour (substrate use), 8 hr [4]: 1.67; 590 nm absorbance normalized to zero hour (substrate use), 9 hr [4]: 1.83; 590 nm absorbance normalized to zero hour (substrate use), 10 hr [4]: 1.89; 590 nm absorbance normalized to zero hour (substrate use), 11 hr [4]: 2.05
O=C(CO)[C@@H](O)[C@H](O)[C@H](O)COP(=O)(O)O [D-Fructose-6-Phosphate] | 1.03 | 0.90 | 0.59 | 0.97 | 0.23 | 0.49 | 0.97 | 0.92 | 0.64 | 1.03 | 0.54 | 1.00 | 0.59 | 0.75 | 0.87 | 0.94 | 1.18 | 1.35 | 1.49 | 1.55 | 590 nm absorbance normalized to zero hour (substrate use), 5 hr [3]: 1.11; 590 nm absorbance normalized to zero hour (substrate use), 7 hr [3]: 1.27; 590 nm absorbance normalized to zero hour (substrate use), 11 hr [3]: 1.65; 590 nm absorbance normalized to zero hour (substrate use), 1 hr [4]: 0.59; 590 nm absorbance normalized to zero hour (substrate use), 2 hr [4]: 0.75; 590 nm absorbance normalized to zero hour (substrate use), 3 hr [4]: 0.87; 590 nm absorbance normalized to zero hour (substrate use), 4 hr [4]: 0.94; 590 nm absorbance normalized to zero hour (substrate use), 5 hr [4]: 1.11; 590 nm absorbance normalized to zero hour (substrate use), 6 hr [4]: 1.18; 590 nm absorbance normalized to zero hour (substrate use), 7 hr [4]: 1.27; 590 nm absorbance normalized to zero hour (substrate use), 8 hr [4]: 1.35; 590 nm absorbance normalized to zero hour (substrate use), 9 hr [4]: 1.49; 590 nm absorbance normalized to zero hour (substrate use), 10 hr [4]: 1.55; 590 nm absorbance normalized to zero hour (substrate use), 11 hr [4]: 1.65
OC[C@H]1O[C@H](O[C@H]2[C@H](O)[C@@H](O)[C@H](O)O[C@@H]2CO)[C@H](O)[C@@H](O)[C@@H]1O [Maltose] | 1.07 | 1.04 | 1.27 | 1.22 | 1.72 | 1.68 | 1.97 | 1.93 | 2.37 | 1.07 | 1.53 | 1.53 | 2.29 | 3.23 | 3.88 | 4.21 | 5.86 | 7.01 | 8.07 | 8.77 | Substrate use, 590 nm absorbance normalized to zero hour, 1 hr [2]: 2.29; Substrate use, 590 nm absorbance normalized to zero hour, 5 hr [2]: 5.22; Substrate use, 590 nm absorbance normalized to zero hour, 7 hr [2]: 6.41; 590 nm absorbance normalized to zero hour (substrate use), 11 hr [3]: 8.43
O=C[C@H](O)[C@@H](O)[C@H](O)[C@H](O)CO [D-(+)-Glucose] |  |  |  |  |  |  |  |  |  |  |  |  |  |  |  |  |  |  |  |  | 590 nm absorbance normalized to zero hour (substrate use), 1 hr [4]: 0.82; 590 nm absorbance normalized to zero hour (substrate use), 2 hr [4]: 1.44; 590 nm absorbance normalized to zero hour (substrate use), 3 hr [4]: 1.76; 590 nm absorbance normalized to zero hour (substrate use), 4 hr [4]: 1.96; 590 nm absorbance normalized to zero hour (substrate use), 5 hr [4]: 2.64; 590 nm absorbance normalized to zero hour (substrate use), 6 hr [4]: 2.91; 590 nm absorbance normalized to zero hour (substrate use), 7 hr [4]: 3.23; 590 nm absorbance normalized to zero hour (substrate use), 8 hr [4]: 3.59; 590 nm absorbance normalized to zero hour (substrate use), 9 hr [4]: 4.21; 590 nm absorbance normalized to zero hour (substrate use), 10 hr [4]: 4.43; 590 nm absorbance normalized to zero hour (substrate use), 11 hr [4]: 5.05
